The text below walks through data of ChEMBL document CHEMBL4219261, “Discovery of 3(S)-thiomethyl pyrrolidine ERK inhibitors for oncology” (Bioorg Med Chem Lett, 2018).

A short description of data set [1]: Drug level in rat cryopreserved hepatocytes treated with (R)-N-(3-(4-fluorophenyl)-1H-indazol-5-yl)-1-(2-oxo-2-(4-(4-(pyrimidin-2-yl)phenyl)piperazin-1-yl)ethyl)pyrrolidine-3-carboxamide at 10 uM up to 4 hrs by LC-ESI/MS/MS analysis. The format is ADME, cell-based, Hepatocyte.
Data set [2] in a line: Drug level in human cryopreserved hepatocytes treated with [3H]8 at 1 uCi/ml up to 4 hrs by LC-ESI/MS/MS analysis. The class given is ADME, cell-based, Hepatocyte.
The target of data set [3] is Mitogen-activated protein kinase 1 (Homo sapiens, UniProt P28482). Put plainly: Inhibition of ERK2 (unknown origin).
A short description of data set [4]: AUC in rat at 10 mg/kg. The format is ADME, organism-based. To be noted: in vivo.
Data set [5] concerns HT-29. Put plainly: Antiproliferative activity against human HT-29 cells harboring BRAF/KRAS mutant. The class given is functional, cell-based.
For data set [6], the target named is T1, Cytochrome P450 3A4 (Homo sapiens, UniProt P08684). Put plainly: Inhibition of CYP3A4 (unknown origin) under co-incubation condition. The class given is ADME.
The target of data set [7] is hERG (KCNH2) (Homo sapiens, UniProt Q12809). Put plainly: Inhibition of human ERG at […] by Rb efflux assay.
Data set [8] in a line: Clearance in dog hepatocytes assessed per million cells. The class given is ADME, cell-based, Canis lupus familiaris, Hepatocyte.
Data set [9] in a line: Clearance in human hepatocytes assessed per million cells. The format is ADME, cell-based, Hepatocyte.
The nature of data set [10]: AUC in dog at 10 mg/kg, po. The format is ADME, organism-based, Canis lupus familiaris. The note with it: in vivo.
Data set [11] has as its target T1, Cytochrome P450 3A4. Put plainly: Inhibition of CYP3A4 (unknown origin) under pre-incubation condition. The class given is ADME.
In data set [12] the test system is HT-29. Put plainly: Induction of apoptosis in human HT-29 cells harboring BRAF/KRAS mutant by caspase activation assay. The format is functional, cell-based.
The nature of data set [13]: Oral bioavailability in rat at 10 mg/kg. The class given is ADME, organism-based. The note with it: in vivo.
Data set [14] can be described thus: Apparent permeability in human Caco2 cells […]. The format is ADME, cell-based. To be noted: Caco-2. For orientation: Caco-2 cells form a polarised layer with tight junctions and transporters.
The nature of data set [15]: Oral bioavailability in rat at or 10 mg/kg. The class given is ADME, organism-based. The note with it: in vivo.
Data set [16] can be described thus: Drug metabolism in rat cryopreserved hepatocytes assessed as (R)-1-(2-oxo-2-(4-(4-(pyrimidin-2-yl)phenyl)piperazin-1-yl)ethyl)pyrrolidine-3-carboxylic acid formation at 10 uM up to 4 hrs by LC-ESI/MS/MS analysis. The class given is ADME, cell-based, Hepatocyte.
The nature of data set [17]: Drug metabolism in rat cryopreserved hepatocytes assessed as N-(3-(4-fluorophenyl)-1H-indazol-5-yl)acetamide formation at 10 uM up to 4 hrs by LC-ESI/MS/MS analysis. The class given is ADME, cell-based, Hepatocyte.
The nature of data set [18]: Drug metabolism in human cryopreserved hepatocytes assessed as (R)-1-(2-oxo-2-(4-(4-(pyrimidin-2-yl)phenyl)piperazin-1-yl)ethyl)pyrrolidine-3-carboxylic acid formation at 1 uCi/ml up to 4 hrs by LC-ESI/MS/MS analysis. The format is ADME, cell-based, Hepatocyte.
A short description of data set [19]: Drug metabolism in human cryopreserved hepatocytes assessed as N-(3-(4-fluorophenyl)-1H-indazol-5-yl)acetamide formation at 1 uCi/ml up to 4 hrs by LC-ESI/MS/MS analysis. The format is ADME, cell-based, Hepatocyte.
Data set [20] in a line: Drug metabolism in rat bile assessed as amide hydrolysis followed by glucuronidation level 10 mg/kg, iv measured during 0 to 8 hrs post dose by LC-ESI/MS/MS analysis. The format is ADME, organism-based. To be noted: in vivo.
Data set [21] is described as follows: Drug metabolism in rat bile assessed as amide hydrolysis followed by glucuronidation level 10 mg/kg, iv measured during 8 to 24 hrs post dose by LC-ESI/MS/MS analysis. The format is ADME, organism-based. To be noted: in vivo.
A short description of data set [22]: Drug metabolism in rat urine assessed as amide hydrolysis followed by glucuronidation level 10 mg/kg, iv measured during 0 to 8 hrs post dose by LC-ESI/MS/MS analysis. The class given is ADME, organism-based. The note with it: in vivo.
Data set [23] can be described thus: Drug metabolism in rat urine assessed as amide hydrolysis followed by glucuronidation level 10 mg/kg, iv measured during 8 to 24 hrs post dose by LC-ESI/MS/MS analysis. The format is ADME, organism-based. The note with it: in vivo.
A short description of data set [24]: Total plasma clearance in rat at 3 mg/kg, iv or 10 mg/kg, po. The format is ADME, organism-based.
Data set [25] is described as follows: Half life in rat at 3 mg/kg, iv or 10 mg/kg, po. The format is ADME, organism-based. To be noted: in vivo.
Data set [26] in a line: MRT in rat at 3 mg/kg, iv or 10 mg/kg, po. The format is ADME, organism-based. The note with it: in vivo.
The nature of data set [27]: Total plasma clearance in dog at 2 mg/kg, iv or 2 mg/kg dosed via portal vein infusion or 10 mg/kg, po. The class given is ADME, organism-based, Canis lupus familiaris.
A short description of data set [28]: Half life in dog at 2 mg/kg, iv or 2 mg/kg dosed via portal vein infusion or 10 mg/kg, po. The class given is ADME, organism-based, Canis lupus familiaris. To be noted: in vivo.
Data set [29] in a line: MRT in dog at 2 mg/kg, iv or 2 mg/kg dosed via portal vein infusion or 10 mg/kg, po. The note with it: in vivo. The class given is ADME, organism-based, Canis lupus familiaris.
A short description of data set [30]: Oral bioavailability in dog at 10 mg/kg. The format is ADME, organism-based, Canis lupus familiaris. To be noted: in vivo.

SMILES strings stand for the structures.

hERG (KCNH2), sequence (Q12809 whole entry): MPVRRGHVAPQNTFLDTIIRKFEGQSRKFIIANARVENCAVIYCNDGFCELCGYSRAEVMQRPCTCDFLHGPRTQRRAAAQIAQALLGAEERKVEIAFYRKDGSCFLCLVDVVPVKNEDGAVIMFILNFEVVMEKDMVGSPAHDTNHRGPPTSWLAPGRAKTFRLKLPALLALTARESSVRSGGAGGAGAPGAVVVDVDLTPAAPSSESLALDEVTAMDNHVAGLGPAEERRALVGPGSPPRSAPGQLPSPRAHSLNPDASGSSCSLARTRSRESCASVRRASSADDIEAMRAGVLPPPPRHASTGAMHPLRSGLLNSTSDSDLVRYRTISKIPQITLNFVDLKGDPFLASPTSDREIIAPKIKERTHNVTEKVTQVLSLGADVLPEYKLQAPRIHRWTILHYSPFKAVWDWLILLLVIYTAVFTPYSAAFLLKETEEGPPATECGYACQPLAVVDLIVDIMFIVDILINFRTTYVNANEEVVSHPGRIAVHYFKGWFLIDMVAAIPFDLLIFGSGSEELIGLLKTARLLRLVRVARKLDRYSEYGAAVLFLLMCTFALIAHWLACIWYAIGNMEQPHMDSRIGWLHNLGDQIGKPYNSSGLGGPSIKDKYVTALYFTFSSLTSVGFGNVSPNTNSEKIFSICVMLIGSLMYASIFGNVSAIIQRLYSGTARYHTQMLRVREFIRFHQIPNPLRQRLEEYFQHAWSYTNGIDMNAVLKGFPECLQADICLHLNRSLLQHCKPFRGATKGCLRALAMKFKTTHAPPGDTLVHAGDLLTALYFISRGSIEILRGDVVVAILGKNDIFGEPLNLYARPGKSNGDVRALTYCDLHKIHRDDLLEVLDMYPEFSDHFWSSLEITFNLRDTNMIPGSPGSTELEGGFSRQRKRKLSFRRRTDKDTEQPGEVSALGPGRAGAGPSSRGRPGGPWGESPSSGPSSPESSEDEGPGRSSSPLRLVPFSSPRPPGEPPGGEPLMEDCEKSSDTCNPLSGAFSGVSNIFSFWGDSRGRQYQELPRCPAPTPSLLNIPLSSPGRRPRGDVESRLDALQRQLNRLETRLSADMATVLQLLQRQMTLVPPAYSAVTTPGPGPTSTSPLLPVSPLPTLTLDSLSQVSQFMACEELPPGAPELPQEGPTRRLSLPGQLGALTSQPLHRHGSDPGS
Mitogen-activated protein kinase 1, sequence (P28482 whole entry): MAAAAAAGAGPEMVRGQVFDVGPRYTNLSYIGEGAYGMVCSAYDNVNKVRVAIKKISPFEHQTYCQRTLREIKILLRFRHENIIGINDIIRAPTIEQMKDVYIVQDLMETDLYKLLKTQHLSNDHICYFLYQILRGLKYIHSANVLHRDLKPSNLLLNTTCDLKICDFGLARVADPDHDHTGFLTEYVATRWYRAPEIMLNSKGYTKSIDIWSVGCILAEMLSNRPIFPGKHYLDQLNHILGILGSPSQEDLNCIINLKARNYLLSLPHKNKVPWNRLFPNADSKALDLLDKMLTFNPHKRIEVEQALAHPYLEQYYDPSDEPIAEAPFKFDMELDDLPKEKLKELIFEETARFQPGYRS
T1 sequence (P08684 whole entry): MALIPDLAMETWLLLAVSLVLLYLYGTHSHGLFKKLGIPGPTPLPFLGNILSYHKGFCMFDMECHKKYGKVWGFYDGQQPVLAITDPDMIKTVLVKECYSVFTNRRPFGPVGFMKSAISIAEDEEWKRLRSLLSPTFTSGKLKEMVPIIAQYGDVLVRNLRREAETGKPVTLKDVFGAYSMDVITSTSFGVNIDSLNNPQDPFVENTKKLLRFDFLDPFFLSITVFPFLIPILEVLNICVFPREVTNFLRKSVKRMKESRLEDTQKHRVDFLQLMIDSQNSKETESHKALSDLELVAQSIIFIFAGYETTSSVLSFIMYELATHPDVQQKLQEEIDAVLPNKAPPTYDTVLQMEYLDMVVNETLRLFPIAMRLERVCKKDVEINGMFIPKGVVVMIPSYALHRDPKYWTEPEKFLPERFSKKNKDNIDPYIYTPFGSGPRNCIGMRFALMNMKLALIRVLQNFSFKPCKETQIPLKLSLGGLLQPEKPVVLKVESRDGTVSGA

`O=C(O)[C@@H]1CCN(CC(=O)N2CCN(c3ccc(-c4ncccn4)cc3)CC2)C1`: the Drug metabolism entry in [1] and in [2] was “Metabolite_Detected” throughout.
By IC50 is commonly meant the concentration that gives 50% inhibition. Regarding `O=C(Nc1ccc2[nH]nc(-c3ccc(F)cc3)c2c1)[C@@H]1CCN(CC(=O)N2CC=C(c3ccc(-c4ncccn4)cc3)CC2)C1`, inhibition in data set [3] was half-maximal at 15.5 nM (IC50).
The same measure, in the same setting: in the case of `O=C(CN1CCCC(c2cn(-c3ccc4[nH]nc(-c5ccc(F)cc5)c4c3)nn2)C1)N1CC=C(c2ccc(-c3ncccn3)cc2)CC1` (stereo not drawn) it was more than 1000 nM; in that of `O=C(CN1CCC(CF)(C(=O)Nc2ccc3[nH]nc(-c4ccc(F)cc4)c3c2)C1)N1CCN(c2ccc(-c3ncccn3)cc2)CC1` (stereo not drawn), 5.8 nM; in that of `CS[C@]1(C(=O)Nc2ccc3[nH]nc(-c4ccc(F)cc4)c3c2)CCN(CC(=O)N2CC=C(c3ccc(-c4ncccn4)cc3)CC2)C1`, more than 3000 nM.
Still for that read-out and setting: the same measure for `C[C@@]1(C(=O)Nc2ccc3[nH]nc(-c4ccc(F)cc4)c3c2)CCN(CC(=O)N2CCN(c3ccc(-c4ncccn4)cc3)CC2)C1`: 24 nM; for `O=C(CN1CC[C@@H](CNc2ccc3[nH]nc(-c4ccc(F)cc4)c3c2)C1)N1CCN(c2ccc(-c3ncccn3)cc2)CC1`: 960 nM; for `CC(C)O[C@@]1(C(=O)Nc2ccc3[nH]nc(-c4ccc(F)cc4)c3c2)CCN(CC(=O)N2CCN(c3ccc(-c4ncccn4)cc3)CC2)C1`: 90 nM.
In data set [3], `O=C(Nc1ccc2[nH]nc(-c3ccc(F)cc3)c2c1)C1CN(CC(=O)N2CC=C(c3ccc(-c4ncccn4)cc3)CC2)CCS1` (stereo not drawn) had an IC50 of 1310 nM.
`O=C(Nc1ccc2[nH]nc(-c3ccc(F)cc3)c2c1)[C@@H]1CCN(CC(=O)N2CCN(c3ccc(-c4ncccn4)cc3)CC2)C1`: the IC50 in [3] was found to be 5.5 nM.
As a reminder, the AUC is concentration integrated over time. A higher AUC goes with high exposure. What is called inhibition is how much of the control response was suppressed. As for `CO[C@@]1(C(=O)Nc2ccc3[nH]nc(-c4ccc(F)cc4)c3c2)CCN(CC(=O)N2CC=C(c3ccc(-c4ncccn4)cc3)CC2)C1`, the AUC in data set [4] was 1.88 µM·h; in data set [10], 4.53 µM·h. For the same compound, the IC50 in data set [3] was determined as 4.8 nM; in data set [5], 88 nM; in data set [6] it was 31000 nM; in data set [11], 2200 nM; in data set [12], 79 nM. The inhibition at […] in data set [7] was 56%. Further, the CLH amounted to 36 µL/min/1e6 cells in data set [8] and 33 µL/min/1e6 cells in data set [9].
Turning to `CCO[C@@]1(C(=O)Nc2ccc3[nH]nc(-c4ccc(F)cc4)c3c2)CCN(CC(=O)N2CCN(c3ccc(-c4ncccn4)cc3)CC2)C1`, in data set [3], the half-inhibitory concentration (IC50) came out at 9.7 nM.
In turn, `O=C(CN1CC[C@@](CO)(C(=O)Nc2ccc3[nH]nc(-c4ccc(F)cc4)c3c2)C1)N1CC=C(c2ccc(-c3ncccn3)cc2)CC1` came in with an IC50 in data set [3] of 14 nM.
Still for that read-out and setting: in the case of `CC[C@@]1(C(=O)Nc2ccc3[nH]nc(-c4ccc(F)cc4)c3c2)CCN(CC(=O)N2CC=C(c3ccc(-c4ncccn4)cc3)CC2)C1` it was 115 nM; in that of `CN(C)C1(C(=O)Nc2ccc3[nH]nc(-c4ccc(F)cc4)c3c2)CCN(CC(=O)N2CC=C(c3ccc(-c4ncccn4)cc3)CC2)C1` (stereo not drawn), 21 nM.
The same measure, in the same setting: the same measure for `O=C(Nc1ccc2[nH]nc(-c3ccc(F)cc3)c2c1)C1CN(CC(=O)N2CC=C(c3ccc(-c4ncccn4)cc3)CC2)CCO1` (stereo not drawn): 119 nM.
Broadly, the bioavailability is dose-corrected exposure relative to a reference, in per cent. Read a high bioavailability as much systemic uptake. The Papp is the rate of passage across a membrane or cell layer, normalised by area and donor concentration. In the case of `O=C(Nc1ccc2[nH]nc(-c3ccncc3)c2c1)[C@@H]1CCN(CC(=O)N2CCN(c3ccc(-c4ncccn4)cc3)CC2)C1`, the bioavailability in data set [13] and in data set [15] was 0% throughout. The IC50 was 59 nM in data set [5], 7800 nM in data set [6], 5700 nM in [11] and 96 nM in data set [12]. The inhibition at […] in data set [7] came out at 12%. For the same compound, in data set [14], the Papp amounted to 4 ×10⁻⁶ cm/s.
For the compound `[3H]c1cc(N2CCN(C(=O)CN3CC[C@@H](C(=O)Nc4ccc5[nH]nc(-c6c([3H])cc(F)cc6[3H])c5c4)C3)CC2)cc([3H])c1-c1ncccn1`, the Drug metabolism entry in data set [16], in data set [17], in data set [18], in data set [19], in data set [20] and in data set [21] was “Metabolite_Detected” in each case. Moreover, the Drug metabolism result in data set [22] and in data set [23] was “Metabolite_Detected” each time.
Consider `CC(=O)Nc1ccc2[nH]nc(-c3ccc(F)cc3)c2c1`, for which the Drug metabolism result in data set [1] and in data set [2] was “Metabolite_Detected” each time.
`CS[C@@]1(C(=O)Nc2ccc3[nH]nc(-c4ccc(F)cc4)c3c2)CCN(CC(=O)N2CCN(c3ccc(-c4ncccn4)cc3)CC2)C1` gave an IC50 in data set [3] of 5.6 nM.
On to `CO[C@@]1(C(=O)Nc2ccc3[nH]nc(-c4ccc(F)cc4)c3c2)CCN(CC(=O)N2CCN(c3ccc(-c4ncccn4)cc3)CC2)C1`, for which the IC50 in [3] turned out to be 2.1 nM.
The same measure, in the same setting: the same measure for `COC[C@@]1(C(=O)Nc2ccc3[nH]nc(-c4ccc(F)cc4)c3c2)CCN(CC(=O)N2CC=C(c3ccc(-c4ncccn4)cc3)CC2)C1`: 41 nM; for `COC[C@@]1(C(=O)Nc2ccc3[nH]nc(-c4ccc(F)cc4)c3c2)CCN(CC(=O)N2CCN(c3ccc(-c4ncccn4)cc3)CC2)C1`: 25 nM.
On the same count and under the same terms, the same measure for `CS(=O)(=O)[C@@]1(C(=O)Nc2ccc3[nH]nc(-c4ccc(F)cc4)c3c2)CCN(CC(=O)N2CC=C(c3ccc(-c4ncccn4)cc3)CC2)C1`: 12 nM.
Turning to `CC(=O)N(C[C@@H]1CCN(CC(=O)N2CCN(c3ccc(-c4ncccn4)cc3)CC2)C1)c1ccc2[nH]nc(-c3ccc(F)cc3)c2c1`, the IC50 in data set [3] amounted to 574 nM.
The half-life is how long it takes for the measured level to halve. What is called MRT is the average time that molecules of a dose stay in the body. For the compound `CS[C@@]1(C(=O)Nc2ccc3[nH]nc(-c4ccc(F)cc4)c3c2)CCN(CC(=O)N2CC=C(c3ccc(-c4ncccn4)cc3)CC2)C1`, the IC50 in [3] was 7 nM; in data set [6], more than 30000 nM; in [11], 2000 nM; in data set [12] it was 80 nM. For the same compound, the inhibition at […] in data set [7] was 8%. Besides, the CLH in data set [8] turned out to be 18 µL/min/1e6 cells; in [9], 7 µL/min/1e6 cells. Also, the Papp in data set [14] turned out to be 60 ×10⁻⁶ cm/s. The values for the clearance in [24] and in data set [27] were 8.4 mL/min/kg and 7.6 mL/min/kg, respectively. Moreover, the results for the half-life in [25] and in data set [28] were 2.5 h and 2 h, respectively. In addition, the MRT in data set [26] is 2.5 h; in data set [29] it was 5.1 h. For the same compound, the bioavailability is 70% in [15] and 75% in [30]. For the same compound, the AUC in [10] was determined as 17.2 µM·h.
Take `O=C(CN1CCC(Oc2ccccc2)(C(=O)Nc2ccc3[nH]nc(-c4ccc(F)cc4)c3c2)C1)N1CCN(c2ccc(-c3ncccn3)cc2)CC1` (stereo not drawn): in data set [3], the IC50 was more than 3000 nM.
